Test results: patent US9493486B2, “Diazaspirocycloalkane and azaspirocycloalkane” (Hoffmann-La Roche Inc., priority 2012, dated 2016)
pIC50: −log10 of the molar value.

Molecular target: ATX (human His-tagged) (Homo sapiens (Human), UniProt Q13822)
Assay: Human ATX enzyme inhibition assay (fluorescence quenching, MR121 substrate)
Assay type: biochemical
Conditions: 30 nM ATX, 1 μM MR121 substrate, 30° C.
Excerpt: Human ATX Enzyme Inhibition Assay
Assay working solutions were made as follows:

Row | Structure (SMILES) | pIC50
1 | O=C(CCc1ccc(OC(F)(F)F)cc1)N1CCC2(CC1)CN(C(=O)c1ccc3[nH]nnc3c1)C2 [Example 1.24, 1-(2-(1H-benzo[d][1,2,3]triazole-5-carbonyl)-2,7-diazaspiro[3.5]nonan-7-yl)-3-(4-(trifluoromethoxy)phenyl)propan-1-one] | 7.92
2 | O=C(OCc1ccccc1)N1CCC2(CC1)CC(Nc1ccc3[nH]c(=O)oc3c1)C2 [Example 11, Benzyl 2-(2-oxo-2,3-dihydrobenzo[d]oxazol-6-ylamino)-7-azaspiro[3.5]nonane-7-carboxylate] | 5.89
3 | O=C(c1ccc2[nH]nnc2c1)N1CC2(CCN(S(=O)(=O)CCc3cccc(Cl)c3)CC2)C1 [Example 1.21, (1H-benzotriazol-5-yl)-{7-[2-(3-chloro-phenyl)-ethanesulfonyl]-2,7-diaza-spiro[3.5]non-2-yl}-methanone] | 6.09
4 | O=C(OCc1cccc(Cl)c1)N1CCC2(CC1)CN(C(=O)c1ccc3[nH]nnc3c1)C2 [Example 1.03, 3-chlorobenzyl 2-(1H-benzo[d][1,2,3]triazole-5-carbonyl)-2,7-diazaspiro[3.5]nonane-7-carboxylate] | 6.70
5 | O=C(OCc1ccc(OC(F)(F)F)cc1)N1CCC2(CC1)CN(C(=O)N1CCc3[nH]nnc3C1)C2 [Example 13, 4-(Trifluoromethoxy)benzyl 2-(4,5,6,7-tetrahydro-1H-[1,2,3]triazolo[4,5-c]pyridine-5-carbonyl)-2,7-diazaspiro[3.5]nonane-7-carboxylate] | 8.52
6 | O=C(OCc1cc(Cl)cc(Cl)c1)N1CCC2(CC1)CN(C(=O)c1ccc3[nH]nnc3c1)C2 [Example 1, 3,5-Dichlorobenzyl 2-(1H-benzo[d][1,2,3]triazole-5-carbonyl)-2,7-diazaspiro[3.5]nonane-7-carboxylate] | 7.82
7 | O=C(NC1CC2(C1)CN(C(=O)OCc1ccccc1)C2)c1ccc2[nH]nnc2c1 [Example 1.07, 6-[(1H-benzotriazole-5-carbonyl)-amino]-2-aza-spiro[3.3]heptane-2-carboxylic acid benzyl ester] | 5.38
8 | O=C(OCc1ccccc1)N1CCC2(CC1)CN(C(=O)c1ccc3[nH]nnc3c1)C2 [Example 1.01, benzyl 2-(1H-benzo[d][1,2,3]triazole-5-carbonyl)-2,7-diazaspiro[3.5]nonane-7-carboxylate] | 5.62
9 | NS(=O)(=O)c1ccc(C(=O)N2CC3(CCN(C(=O)OCc4ccc(OC(F)(F)F)cc4F)CC3)C2)cc1 [Example 1.23, 2-fluoro-4-(trifluoromethoxy)benzyl 2-(4-sulfamoylbenzoyl)-2,7-diazaspiro[3.5]nonane-7-carboxylate] | 9.00
10 | O=C(OCc1cc(Cl)cc(Cl)c1)N1CC2(CCN(C(=O)c3ccc4[nH]nnc4c3)CC2)C1 [Example 1.15, 3,5-dichlorobenzyl 7-(1H-benzo[d][1,2,3]triazole-5-carbonyl)-2,7-diazaspiro[3.5]nonane-2-carboxylate] | 7.19
11 | O=C(c1ccc2[nH]nnc2c1)N1CC2(CCN(c3nnc(-c4cc(Cl)cc(Cl)c4)o3)CC2)C1 [Example 7, (1H-benzo[d][1,2,3]triazol-5-yl)(7-(5-(3,5-dichlorophenyl)-1,3,4-oxadiazol-2-yl)-2,7-diazaspiro[3.5]nonan-2-yl)methanone] | 7.37
12 | CS(=O)(=O)c1cc(Cl)cc(COC(=O)N2CCC3(CC2)CN(C(=O)c2ccc4[nH]nnc4c2)C3)c1 [Example 1.09, 3-chloro-5-(methylsulfonyl)benzyl 2-(1H-benzo[d][1,2,3]triazole-5-carbonyl)-2,7-diazaspiro[3.5]nonane-7-carboxylate] | 7.30

The next lines start with the values.

Row | pIC50 | Structure (SMILES)
13 | 7.17 | CS(=O)(=O)c1cc(Cl)cc(COC(=O)N2CCC3(CC2)CN(S(=O)(=O)c2ccc4[nH]c(=O)sc4c2)C3)c1 [Example 3.6, 3-chloro-5-(methylsulfonyl)benzyl 2-(2-oxo-2,3-dihydrobenzo[d]thiazol-6-ylsulfonyl)-2,7-diazaspiro[3.5]nonane-7-carboxylate]
14 | 9.00 | Cc1cc(OC(F)(F)F)ccc1COC(=O)N1CCC2(CC1)CN(C(=O)C1CCc3[nH]nnc3C1)C2 (centres unmarked) [Example 12.37, [2-methyl-4-(trifluoromethoxy)phenyl]methyl 2-(4,5,6,7-tetrahydro-1H-benzotriazole-5-carbonyl)-2,7-diazaspiro[3.5]nonane-7-carboxylate]
15 | 6.44 | O=C(CCc1cc(Cl)cc(Cl)c1)N1CCC2(CC1)CC(Nc1ccc3[nH]c(=O)oc3c1)C2 [Example 6.1, 6-(7-(3-(3,5-dichlorophenyl)propanoyl)-7-azaspiro[3.5]nonan-2-ylamino)benzo[d]oxazol-2(3H)-one]
16 | 7.66 | O=C(/C=C/c1cc(Cl)cc(Cl)c1)N1CCC2(CC1)CN(C(=O)c1ccc3[nH]c(=O)oc3c1)C2 [Example 6.4, 6-{7-[(E)-3-(3,5-dichloro-phenyl)-acryloyl]-2,7-diaza-spiro[3.5]nonane-2-carbonyl}-3H-benzooxazol-2-one]
17 | 5.45 | O=C(CCCc1ccccc1)N1CC2(CC(NS(=O)(=O)c3ccc4[nH]c(=O)oc4c3)C2)C1 [Example 3.1, 2-oxo-2,3-dihydro-benzooxazole-6-sulfonic acid [2-(4-phenyl-butyryl)-2-aza-spiro[3.3]hept-6-yl]-amide]
18 | 6.54 | O=C(OCc1cc(Cl)cc(Cl)n1)N1CCC2(CC1)CN(C(=O)c1ccc3[nH]nnc3c1)C2 [Example 12.10, (4,6-dichloropyridin-2-yl)methyl 2-(1H-benzo[d][1,2,3]triazole-5-carbonyl)-2,7-diazaspiro[3.5]nonane-7-carboxylate]
19 | 7.04 | O=C(NCc1cnn[nH]1)C1CC2(CCN(C(=O)/C=C/c3ccc(OC(F)(F)F)cc3)CC2)C1 [Example 6.8, (E)-N-((1H-1,2,3-triazol-5-yl)methyl)-7-(3-(4-(trifluoromethoxy)phenyl)acryloyl)-7-azaspiro[3.5]nonane-2-carboxamide]
20 | 6.08 | O=C(C#Cc1cccc(Cl)c1)N1CCC2(CC1)CN(C(=O)c1ccc3[nH]nnc3c1)C2 [Example 6.10, 1-(2-(1H-benzo[d][1,2,3]triazole-5-carbonyl)-2,7-diazaspiro[3.5]nonan-7-yl)-3-(3-chlorophenyl)prop-2-yn-1-one]
21 | 8.05 | O=C(OCc1ccc(C(F)(F)F)cc1F)N1CCC2(CC1)CN(C(=O)[C@@H]1CCc3[nH]nnc3C1)C2 [Example 16B, (R)-[2-fluoro-4-(trifluoromethyl)phenyl]methyl 2-[4,5,6,7-tetrahydro-1H-benzotriazole-5-carbonyl]-2,7-diazaspiro[3.5]nonane-7-carboxylate]
22 | 6.59 | O=C(c1ccc2[nH]nnc2c1)N1CC2(CCN(c3nnc(-c4ccc(Cl)cc4)o3)CC2)C1 [Example 7.1, (1H-benzo[d][1,2,3]triazol-5-yl)(7-(5-(4-chlorophenyl)-1,3,4-oxadiazol-2-yl)-2,7-diazaspiro[3.5]nonan-2-yl)methanone]
23 | 7.42 | CS(=O)(=O)c1cc(Cl)cc(COC(=O)N2CCC3(CC2)CN(C(=O)c2ccc4[nH]c(=O)oc4c2)C3)c1 [Example 2.1, 3-chloro-5-(methylsulfonyl)benzyl 2-(2-oxo-2,3-dihydrobenzo[d]oxazole-6-carbonyl)-2,7-diazaspiro[3.5]nonane-7-carboxylate]
24 | 6.86 | CS(=O)(=O)c1ccc(COC(=O)N2CCC3(CC2)CN(C(=O)c2ccc4[nH]nnc4c2)C3)c(Cl)c1 [Example 12.28, 2-chloro-4-(methylsulfonyl)benzyl 2-(1H-benzo[d][1,2,3]triazole-5-carbonyl)-2,7-diazaspiro[3.5]nonane-7-carboxylate]
25 | 8.60 | O=C(OCc1ccc(OCC(F)(F)F)c(F)c1)N1CCC2(CC1)CN(C(=O)C1CCc3nn[nH]c3C1)C2 (centres unmarked) [Example 12.40, 3-fluoro-4-(2,2,2-trifluoroethoxy)benzyl 2-(4,5,6,7-tetrahydro-1H-benzo[d][1,2,3]triazole-6-carbonyl)-2,7-diazaspiro[3.5]nonane-7-carboxylate]
26 | 7.16 | O=C(NC1CC2(C1)CC(C(=O)Nc1ccc3[nH]nnc3c1)C2)OCc1cc(Cl)cc(Cl)c1 (centres unmarked) [Example 12.29, 3,5-dichlorobenzyl 6-(1H-benzo[d][1,2,3]triazol-5-ylcarbamoyl)spiro[3.3]heptan-2-ylcarbamate]
27 | 7.86 | O=C(OCc1cc(Cl)cc(Cl)c1)N1CC2(CCN(C(=O)c3ccc4[nH]c(=O)oc4c3)CC2)C1 [Example 2.2, 7-(2-oxo-2,3-dihydro-benzooxazole-6-carbonyl)-2,7-diaza-spiro[3.5]nonane-2-carboxylic acid 3,5-dichloro-benzyl ester]
28 | 7.70 | O=C(NC1CC2(C1)CN(S(=O)(=O)c1ccc3[nH]c(=O)oc3c1)C2)OCc1cc(Cl)cc(Cl)c1 [Example 3.5, [2-(2-oxo-2,3-dihydro-benzooxazole-6-sulfonyl)-2-aza-spiro[3.3]hept-6-yl]-carbamic acid 3,5-dichloro-benzyl ester]
29 | 6.42 | CC(OC(=O)N1CCC2(CC1)CN(C(=O)c1ccc3[nH]nnc3c1)C2)c1cc(Cl)cc(Cl)c1 (centres unmarked) [Example 12.07, 1-(3,5-dichlorophenyl)ethyl 2-(1H-benzo[d][1,2,3]triazole-5-carbonyl)-2,7-diazaspiro[3.5]nonane-7-carboxylate]
30 | 9.00 | O=C(OCc1ccc(OC(F)(F)F)cc1)N1CCC2(CC1)CN(C(=O)C1CCc3[nH]nnc3C1)C2 (centres unmarked) [Example 12.43, 4-(trifluoromethoxy)benzyl 2-(4,5,6,7-tetrahydro-1H-benzo[d][1,2,3]triazole-5-carbonyl)-2,7-diazaspiro[3.5]nonane-7-carboxylate]
31 | 7.66 | CS(=O)(=O)c1cc(Cl)cc(COC(=O)N2CCC3(CC2)CN(S(=O)(=O)c2ccc4[nH]c(=O)oc4c2)C3)c1 [Example 12.31, 3-chloro-5-(methylsulfonyl)benzyl 2-(2-oxo-2,3-dihydrobenzo[d]oxazol-6-ylsulfonyl)-2,7-diazaspiro[3.5]nonane-7-carboxylate]
32 | 7.04 | CS(=O)(=O)c1cc(COC(=O)N2CCC3(CC2)CN(C(=O)c2ccc4[nH]nnc4c2)C3)cc(C(F)(F)F)c1 [Example 12.25, 3-(methylsulfonyl)-5-(trifluoromethyl)benzyl 2-(1H-benzo[d][1,2,3]triazole-5-carbonyl)-2,7-diazaspiro[3.5]nonane-7-carboxylate]
